System: pads of fat near the waist ("love handles")
Conditions: patient; niacin 500 mg rising to 1500 mg/day orally by tablet over 14 days; 635 nm diode laser, max 10 mW, 30 min scanning sessions

## O=C(O)c1cccnc1 [niacin, nicotinic acid]
  Fat reduction: love handles after treatment: reduced
